The source of these data is PMC5599605, “Production and Characteristics of a Novel Xylose- and Alkali-tolerant GH 43 β-xylosidase from Penicillium oxalicum for Promoting Hemicellulose Degradation” (Scientific Reports, 2017).

By Ki is commonly meant a measure of affinity in units of concentration, obtained from inhibition or displacement. The low end stands for higher affinity, the high end for lower affinity. One may read the Km as the concentration of substrate that gives half-maximal velocity.

The target of series [1] is T1, Xyl43 (Penicillium oxalicum, UniProt S7ZRR2).
T1 construct: gene PDE_06306; full-length, 348 residues, no native signal peptide; alpha-factor secretion signal, C-terminal His6 tag kept; Pichia pastoris X-33 (pPICZalphaA)
The experiment in a line: pNPX hydrolysis, residual activity. As to conditions: pNPX 1 mg/ml, pH 7.0, 50 °C, 30 min; D or L not stated. In kind it is biochemical.

Series [2] addresses T1, Xyl43. The experiment in a line: pNPX hydrolysis, Dixon plot. The following applies: substrate pNPX 0.5 and 1 mg/ml, pH 7.0, 50 °C; end product; described as uncompetitive; Table 1 prints 28.9. It counts as biochemical.
Substrate in series [3]: O=[N+]([O-])c1ccc(O[C@@H]2OC[C@@H](O)[C@H](O)[C@H]2O)cc1
Kind of series: p-nitrophenol release, Lineweaver-Burk plot. It counts as biochemical, Penicillium oxalicum. As to conditions: pH 7.0, 50 °C, 5 min, no xylose.

For the molecule `OC1OC[C@H](O)[C@H](O)[C@H]1O` (stereo partly drawn) [arabinose], on Xyl43 [1], the “% of initial activity at 20 mM” value is given as 88.7%.
`OC1OC[C@@H](O)[C@H](O)[C@H]1O` (stereo partly drawn) [xylose] yielded an inhibition constant Ki at Xyl43 [2] of 28.1 mM.

B1: Xyl43 (Penicillium oxalicum 114-2) (protein)
chain: MSSSTSSAPRPDPKPLVTHLYTADPSAHVFNNKIYIYPSHDRETDIAFNDNGDQYDMTDYHVFSMDAIDGPVTDSGVVLSAADVPWVSKQMWAPDAATKNGKYYLFFPARDHEGIFRIGVAVSDSPMGPFAPEKSYIPGSYSIDPAVFVDTDDSAYLYFGGIWGGQLQCWERADGSASASADPQMNGLVFNKSKSGPQEPSGAGVPALCPRVGQLSDDMLTFVSPPRELQILAPETGEPLAADDHERRFFEAAWMHKYKGKYYFSYSTGDSHYLVYATGDSPWGPFTYQGRILEPVLGWTTHHSIVEFQGKWYLFYHDCELSKGVDHLRSVKVREIVYDEEDKIHLA
notes: full-length, 348 residues, no native signal peptide; alpha-factor secretion signal, C-terminal His6 tag kept; Pichia pastoris X-33 (pPICZalphaA)
B1: in series [3], the Km came to 4.05 mM.
